# Counter-ions that a name gives are not always drawn. Like-named read-outs stand apart in the source and are kept apart here.
# What was measured:
# [1] = system: A375; assay: Cytoviability assay (resazurin), A375; format: cell-based; settings: Homo sapiens, A-375, 24 hours after treatment, read-out: IC50 cell viability A375
# Protocol: (§1) A cell viability assay based on cellular reduction of resazurin to the fluorescent product resorufin was performed. Viable cells can metabolize and reduce the dye, whereas dead cells rapidly lose the capacity to do so, making the increase in fluorescence directly proportional to the number of viable cells. The tested compounds were added in a log2 titration and viable cells were analyzed 24 hours after treatment. The fluorescence was determined at an excitation wavelength of 560 nm and an emission wavelength of 590 nm. The percentage of viable cells in relation to the untreated control proliferation was calculated. […] Perhexiline results are depicted graphically in FIGS. 6A-6C and Erythromycin results in FIGS. 7A-7C.
# [2] = system: RENCA; assay: Cell proliferation assay (crystal violet), RENCA; format: cell-based; settings: 72 hours, OD 595 nm
# Protocol: (§2) In order to further confirm the surprising results described above, the compounds were tested in a cell proliferation assay. Crystal violet was used to measure cell proliferation; this basic dye stains cell nuclei and provides a sensitive, rapid evaluation. Light absorption of unstained or destained cell layers is negligible, making it possible to perform cell number measurements in wells. Six cell types (HUVEC, HDMEC, SMC, Fibroblast, A375 and RENCA) were plated and treated with the compounds in a log2 titration for 72 hours. The optimal cell number for each cell type was determined and optical density (OD) was measured at 595 nm. Each data point was measured in quadruplicate. The assay was stopped after 72 hours and subsequently analyzed. The OD-value of the plated cells before addition of the compounds was subtracted from all OD-values obtained after treatment. The percentage in relation to control proliferation was then calculated. Negative values therefore represent a count of fewer cells than were plated. The IC50 is given below in Table 1. Results are shown as a percentage in relation to the control proliferation. The IC50 were calculated using GraphPad Prism software (GraphPad Software, Inc.). Perhexiline results are depicted graphically in FIGS. 4A-4C and Erythromycin results in FIGS. 5A-5C.
# [3] = system: Fibroblast; assay: Cell proliferation assay (crystal violet), Fibroblast; format: cell-based; settings: 72 hours, OD 595 nm
# Protocol: as §2
# [4] = system: HDMEC; assay: Cell proliferation assay (crystal violet), HDMEC; format: cell-based; settings: 72 hours, OD 595 nm
# Protocol: as §2
# [5] = system: HUVEC sprouting; assay: Spheroid-based 3D angiogenesis assay (IC50, alone or with VEGFR-2 inhibitor); format: cell-based, human; settings: Homo sapiens, HUVEC
# Text: Therefore, the assay was applied to test compounds alone or in combination with a VEGFR-2 inhibitor to address changes in IC50. […] The VEGFR-2 inhibitor was applied at a concentration close to the IC50.
# [6] = system: HUVEC; assay: Cytoviability assay (resazurin), HUVEC; format: cell-based; settings: Homo sapiens, 24 hours after treatment, read-out: IC50 cell viability HUVEC
# Protocol: as §1
# [7] = system: HDMEC; assay: Cytoviability assay (resazurin), HDMEC; format: cell-based; settings: 24 hours after treatment, read-out: IC50 cell viability HDMEC
# Protocol: as §1
# [8] = system: HUVEC; assay: Cell proliferation assay (crystal violet), HUVEC; format: cell-based; settings: Homo sapiens, 72 hours, OD 595 nm
# Protocol: In order to further confirm the surprising results described above, the compounds were tested in a cell proliferation assay. Crystal violet was used to measure cell proliferation; this basic dye stains cell nuclei and provides a sensitive, rapid evaluation. Light absorption of unstained or destained cell layers is negligible, making it possible to perform cell number measurements in wells.
# Six cell types (HUVEC, HDMEC, SMC, Fibroblast, A375 and RENCA) were plated and treated with the compounds in a log2 titration for 72 hours. The optimal cell number for each cell type was determined and optical density (OD) was measured at 595 nm. Each data point was measured in quadruplicate. The assay was stopped after 72 hours and subsequently analyzed.
# The OD-value of the plated cells before addition of the compounds was subtracted from all OD-values obtained after treatment. The percentage in relation to control proliferation was then calculated. Negative values therefore represent a count of fewer cells than were plated. The IC50 is given below in Table 1. Results are shown as a percentage in relation to the control proliferation. The IC50 were calculated using GraphPad Prism software (GraphPad Software, Inc.). Perhexiline results are depicted graphically in FIGS. 4A-4C and Erythromycin results in FIGS. 5A-5C. […]
# [9] = system: B16F10 cells; assay: Cell viability of B16F10 cells; format: cell-based; settings: Mus musculus, B16-F10; after 24 and 48 hours incubation
# Protocol: as §1
# Through the two aforementioned assays it was determined that RENCA cells are more sensitive when treated with Perhexiline than the other cell types in the proliferation assay and in the viability assay. Therefore, the B16F10 cells were subsequently tested. The B16F10 tumor model, like the RENCA model, is an orthotopic tumor model.
# [10] = system: A375; assay: Cell proliferation assay (crystal violet), A375; format: cell-based; settings: Homo sapiens, A-375, 72 hours, OD 595 nm
# Protocol: as §2
# [11] = system: SMC; assay: Cell proliferation assay (crystal violet), SMC; format: cell-based; settings: 72 hours, OD 595 nm
# Protocol: as §2
# [12] = system: NHDF (human dermal fibroblasts) scattering; assay: NHDF spheroid evaluation (fibroblast scattering); format: cell-based
# Protocol: Where the test compound was classified as an inhibitor or stimulator, a second screening process was performed. In the second screen, the test substance was thawed and 5 mM of the substance was diluted to a 10 fold concentrated working solution (100 μM) in endothelial cell basal medium. No supplements were used in the basal medium.
# Instead of HUVEC, spheroids were prepared by pipetting 400 human dermal fibroblasts (NHDF) into each well of nonadhesive 96-well plates. Prior to use the NHDF were cultured according to the supplier's instructions (PromoCell, Heidelberg, Germany). The cells were allowed to aggregate overnight into spheroids (Korff and Augustin: J Cell Biol 143: 1341-52, 1998). After aggregation, 48 NHDF spheroids were harvested. Each of the harvested spheroids was seeded in 900 μl of methocel-collagen solution and pipetted into an individual well of a 24-well plate to allow collagen gel polymerization.
# Thirty (30) minutes after seeding, the test substance was added. The working dilution (10 fold concentration) was utilized, 100 μl was pipetted on top of the polymerized collagen gel in each well. The plates were then incubated at 37° C. for 24 hours. At the end of the incubation period the plates were fixed by adding 1 ml paraformaldehyde (10%) to each well.
# The NHDF spheroids were microscopically assayed for fibroblast scattering intensity. […] For exemplary results, see FIG. 1.
# [13] = system: Endothelial cells, Fibroblast, Alexander cells; assay: Viability of cells (Endothelial cells, Fibroblast, Alexander cells); format: cell-based
compound,measurement,setting,value
"C1CCC(C(CC2CCCCN2)C2CCCCC2)CC1 (stereo not drawn) [Perhexiline, Perhexiline maleate]",IC50,[1],10 µM
same,IC50,[2],7.6 µM
same,IC50,[3],12 µM
same,IC50,[4],11 µM
same,IC50,"[5]; compound alone, read-out: IC50 3D angiogenesis assay without VEGFR-2 inhibitor",5.4 µM
same,IC50,[5]; read-out: IC50 in vitro 3D sprouting of HUVEC,1.5 µM
same,IC50,[6],8.4 µM
same,IC50,[7],8 µM
same,IC50,[8],10 µM
same,IC50,[9],10 µM
same,IC50,[10],25 µM
same,IC50,[11],14 µM
same,IC50,"[12]; Homo sapiens, NHDF",19 µM
same,fibroblast scattering (invasion) effect,"[12]; NHDF spheroids in collagen gel, no supplements, 24 hours",no fibroblast invasion effect
same,IC50,[13],~10 µM
